Source: patent US12024506B2, “Compounds” (Oxford University Innovation Limited, priority 2018, dated 2024)

Columns and labels:
[1] = tested on: DLD1 cells (ATCC CCL-221); experiment: Cell viability assay 1 (CellTiter-Glo), DLD1 cells; assay type: cell-based; conditions: Homo sapiens, DLD-1 cells, 48 h, second value of the cell, read-out: Cell Viability DLD-1 (concentration that decreases cell viability by 50%)
Experimental: (§1) Cells (A549 ATCC CCL-185) are cultured in Dulbecco's Modified Eagle's Medium plus 10% foetal calf serum and 2 mM L-glutamine at 37° C., 5% CO2. Cells are plated onto white clear bottom 96-well plates (5000 cells/well in 200 μl media) and left to adhere overnight at 37° C., 5% CO2. Next day, test compound (1 μl at 200× concentration in 100% DMSO) is added to give final test compound concentration 1× in 0.5% DMSO. After 48 h of incubation at 37° C., 5% CO2, 20 μl CellTiter-Glo reagent (Promega G7572) is added into each well. Plates are incubated at room temperature with shaking for 30 min and then luminescence is read using a PheraStar plate reader. The concentration of compounds that decrease cell viability by 50% is calculated from dose response curves generated using Dotmatics data analysis software.
In the DLD1 cell assay, cells (ATCC CCL-221) are cultured in RPMI-1640 medium plus 10% foetal calf serum and 2 mM L-glutamine at 37° C., 5% CO2.

[2] = tested on: H358 cells (ATCC CRL-5807); experiment: Cell viability assay 1 (CellTiter-Glo), H358 cells; assay type: cell-based; conditions: Homo sapiens, NCI-H358, 48 h, first value of the cell, read-out: Cell Viability H358 (concentration that decreases cell viability by 50%)
Experimental: as §1
In the H358 cell assay, cells (ATCC CRL-5807) are cultured in RPMI-1640 medium plus 10% foetal calf serum and 2 mM L-glutamine at 37° C., 5% CO2.

[3] = molecular target: T1, GST-human KRas166 (G12V) GPPNHP (Homo sapiens, UniProt P01116, G12V); experiment: KRas small-molecule screening by SPR (Biacore T200); assay type: binding; conditions: compound 100 uM, 5% DMSO buffer; immobilised GST-KRas166 (G12V) GPPNHP
T1 construct: made in house; host or cells: E. coli C41(DE3)
Procedure, shortened: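 Biacore T200 screen: compounds at 100 uM final in 5% DMSO buffer (100 mM NaCl, 5 mM MgCl2) over GPPNHP-bound GST-KRas166 G12V captured by anti-GST antibody (10,000–15,000 RU) versus GST-only channel. Expected 1:1 Rmax 63 RU; DMSO solvent correction applied.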

IC50 [1] | IC50 [2] | SPR Response Units [3] | SMILES
10.9 µM | 12.4 µM | 230 Response Units | COc1nc(-c2cccc3c2OC(CNC(=O)C2CCOCC2)CO3)ccc1Nc1ccc(CNCc2ccn[nH]2)cc1 (stereo not drawn) [Example 120, Tetrahydro-pyran-4-carboxylic acid {8-[6-methoxy-5-(4-{[(2H-pyrazol-3-ylmethyl)-amino]-methyl}-phenylamino)-pyridin-2-yl]-2,3-dihydro-benzo[1,4]dioxin-2-ylmethyl}-amide]
18.9 µM | 16.9 µM | 205 Response Units | COc1nc(-c2cccc3c2OC(CNC(=O)C2CCOCC2)CO3)ccc1Nc1ccc(CNCC2COCCN2)cc1 (stereo not drawn) [Example 127, Tetrahydro-pyran-4-carboxylic acid{8-[6-methoxy-5-(4-{[(morpholin-3-ylmethyl)-amino]-methyl}-phenylamino)-pyridin-2-yl]-2,3-dihydro-benzo[1,4]dioxin-2-ylmethyl}-amide]
9.5 µM | 6.7 µM | 99 Response Units | COc1nc(-c2cccc3c2OCCO3)ccc1Nc1ccc(CNC[C@@H]2COCCN2)cc1 [Example 128, [6-(2,3-Dihydro-benzo[1,4]dioxin-5-yl)-2-methoxy-pyridin-3-yl]-(4-{[((R)-1-morpholin-3-ylmethyl)-amino]-methyl}-phenyl)-amine]
10.2 µM | 6.5 µM | 92 Response Units | COc1nc(-c2cccc3c2OCCO3)ccc1Nc1ccc(CNC[C@H]2COCCN2)cc1 [Example 129, [6-(2,3-Dihydro-benzo[1,4]dioxin-5-yl)-2-methoxy-pyridin-3-yl]-(4-{[((S)-1-morpholin-3-ylmethyl)-amino]-methyl}-phenyl)-amine]
11 µM | 12.7 µM | 204 Response Units | COc1cc(-c2cccc3c2OCCO3)ccc1Nc1ccc(CNCC2COCCN2)cc1 (stereo not drawn) [Example 132, [4-(2,3-Dihydro-benzo[1,4]dioxin-5-yl)-2-methoxy-phenyl]-(4-{[(morpholin-3-ylmethyl)-amino]-methyl}-phenyl)-amine]
1.36 µM | 14.7 µM | 150 Response Units | c1cc2c(c(-c3ccc(Nc4ccc(CNCC5COCCN5)cc4)cc3)c1)OCCO2 (stereo not drawn) [Example 151, 4-(2,3-dihydrobenzo[b][1,4]dioxin-5-yl)-N-(4-(((morpholin-3-ylmethyl)amino)methyl)phenyl)aniline]
0.56 µM | 12.7 µM | 71 Response Units | c1cc2c(c(-c3cnc(Nc4ccc(CNCC5COCCN5)cc4)cn3)c1)OCCO2 (stereo not drawn) [Example 155, [5-(2,3-Dihydro-benzo[1,4]dioxin-5-yl)-pyrazin-2-yl]-(4-{[(morpholin-3-ylmethyl)-amino]-methyl}-phenyl)-amine]
14.1 µM | 24.7 µM | 122 Response Units | COc1nc(-c2cccc3c2OCCO3)ccc1Nc1ccc(C(=O)NCC2CCC(=O)NC2)cc1 (stereo not drawn) [Example 159]

Second part, the molecule before the results:

SMILES | IC50 [1] | IC50 [2] | SPR Response Units [3]
CN1CCN(Cc2ccc(C(=O)NCC3COc4cccc(-c5ccc(OCc6ccccc6)cn5)c4O3)o2)CC1 (stereo not drawn) [Example 109, 5-(4-Methyl-piperazin-1-ylmethyl)-furan-2-carboxylic acid [8-(5-benzyloxy-pyridin-2-yl)-2,3-dihydro-benzo[1,4]dioxin-2-ylmethyl]-amide] | 9 µM | > 100 µM | 114 Response Units
COc1nc(-c2cccc3c2O[C@H](CNC(=O)C2CCOCC2)CO3)ccc1Nc1cccc(CN(C)C)c1 [Example 112, Tetrahydro-pyran-4-carboxylic acid {(R)-8-[5-(3-dimethylamino-methyl-phenylamino)-6-methoxy-pyridin-2-yl]-2,3-dihydro-benzo[1,4]dioxin-2-ylmethyl}-amide] | 16.3 µM | 18.8 µM | 90 Response Units
COc1nc(-c2cccc3c2OC(CNC(=O)C2CCOCC2)CO3)ccc1Nc1ccc(CNCc2ccccn2)cc1 (stereo not drawn) [Example 118, Tetrahydro-pyran-4-carboxylic acid {8-[6-methoxy-5-(4-{[(pyridin-2-ylmethyl)-amino]-methyl}-phenylamino)-pyridin-2-yl]-2,3-dihydro-benzo[1,4]dioxin-2-ylmethyl}-amide] | 11 µM | 12.8 µM | 291 Response Units
COc1nc(-c2cccc3c2OC(CNC(=O)C2CCOCC2)CO3)ccc1Nc1ccc(CNCc2ccncc2)cc1 (stereo not drawn) [Example 119, Tetrahydro-pyran-4-carboxylic acid {8-[6-methoxy-5-(4-{[(pyridin-4-ylmethyl)-amino]-methyl}-phenylamino)-pyridin-2-yl]-2,3-dihydro-benzo[1,4]dioxin-2-ylmethyl}-amide] | 11.2 µM | 10 µM | 349 Response Units
COc1nc(-c2cccc3c2OCCO3)ccc1Nc1cccc(CNCc2cn[nH]c2)c1 [Example 126, [6-(2,3-Dihydro-benzo[1,4]dioxin-5-yl)-2-methoxy-pyridin-3-yl]-(3-{[(1H-pyrazol-4-ylmethyl)-amino]-methyl}-phenyl)-amine] | 5.3 µM | 5.4 µM | 210 Response Units
COc1cc(NC(=O)C2CNCCO2)cc(-c2cccc3c2O[C@H](CNC(=O)c2ccc(CN4CCN(C)CC4)o2)CO3)n1 (stereo partly drawn) [Example 130, Morpholine-2-carboxylic acid{2-methoxy-6-[(R)-3-({[5-(4-methyl-piperazin-1-ylmethyl)-furan-2-carbonyl]-amino}-methyl)-2,3-dihydro-benzo[1,4]dioxin-5-yl]-pyridin-4-yl}-amide] | 11.9 µM | 13.6 µM | 61 Response Units
CN1CCN(Cc2ccc(C(=O)NCC3COc4cccc(-c5cn(Cc6ccccc6)cn5)c4O3)o2)CC1 (stereo not drawn) [Example 138, 5-(4-Methyl-piperazin-1-ylmethyl)-furan-2-carboxylic acid[8-(1-benzyl-1H-imidazol-4-yl)-2,3-dihydro-benzo[1,4]dioxin-2-ylmethy]-amide] | 18 µM | > 100 µM | 238 Response Units
COc1nc(-c2cccc3c2OCCO3)ccc1Nc1cccc(CNc2cccnc2)c1 [Example 143] | 6.1 µM | 17 µM | 67 Response Units
CN(C)Cc1cccc(Nc2ccc(-c3cccc4c3OCCO4)[nH]c2=O)c1 [Example 153, 6-(2,3-Dihydro-benzo[1,4]dioxin-5-yl)-3-(3-dimethylaminomethyl-phenylamino)-1H-pyridin-2-one] | 0.14 µM | 0.6 µM | 90 Response Units
CN(C)Cc1cccc(CN2CCN(c3cccc4c3OCCO4)CC2)c1 [Example 157, {3-[4-(2,3-Dihydro-benzo[1,4]dioxin-5-yl)-piperazin-1-ylmethyl]-benzyl}-dimethyl-amine] | > 150 µM | > 150 µM | 7 Response Units
COc1nc(-c2cccc3c2OCCO3)ccc1Nc1ccc(C(=O)NCC2CCN(C)CC2)cc1 [Example 158, 4-[6-(2,3-Dihydro-benzo[1,4]dioxin-5-yl)-2-methoxy-pyridin-3-ylamino]-N-(1-methyl-piperidin-4-ylmethyl)-benzamide] | 3.5 µM | 20.6 µM | 269 Response Units
COc1nc(-c2cccc3c2OCCO3)ccc1Nc1ccc(C(=O)NCc2cn[nH]c2)cc1 [Example 160] | 11 µM | 20.7 µM | 89 Response Units
COc1nc(-c2cccc3c2OCCO3)ccc1Nc1cccc(C(=O)NCc2cccc(C)n2)c1 [Example 162, 3-[6-(2,3-Dihydro-benzo[1,4]dioxin-5-yl)-2-methoxy-pyridin-3-ylamino]-N-(6-methyl-pyridin-2-ylmethyl)-benzamide] | 3.9 µM | 27.9 µM | 36 Response Units
COc1nc(-c2cccc3c2OCCO3)ccc1Nc1cccc(C(=O)NCC2CCN(C)CC2)c1 [Example 163, 3-[6-(2,3-Dihydro-benzo[1,4]dioxin-5-yl)-2-methoxy-pyridin-3-ylamino]-N-(1-methyl-piperidin-4-ylmethyl)-benzamide] | 0.74 µM | 8.9 µM | 192 Response Units
COc1nc(-c2cccc3c2OCCO3)ccc1Nc1cccc(C(=O)NCC2CCC(=O)NC2)c1 (stereo not drawn) [Example 164, 3-[6-(2,3-Dihydro-benzo[1,4]dioxin-5-yl)-2-methoxy-pyridin-3-ylamino]-N-(6-oxo-piperidin-3-ylmethyl)-benzamide] | 4.8 µM | 25.9 µM | 136 Response Units
